Reference: PMC11832467, “Novel mitochondrial-targeted alkyl chains act as fungal specific inhibitors of C. neoformans” (Frontiers in Microbiology, 2025)
Read-outs that look alike come from different tables or passages of the source.

Assays:
C. albicans Aox2 (rAox2) = target: T1, C. albicans Aox2 (rAox2) (Candida albicans, UniProt Q9UV71); assay: NADH oxidation at […] nm, E. coli membranes; assay type: biochemical
T1 sequence (Q9UV71 1-365): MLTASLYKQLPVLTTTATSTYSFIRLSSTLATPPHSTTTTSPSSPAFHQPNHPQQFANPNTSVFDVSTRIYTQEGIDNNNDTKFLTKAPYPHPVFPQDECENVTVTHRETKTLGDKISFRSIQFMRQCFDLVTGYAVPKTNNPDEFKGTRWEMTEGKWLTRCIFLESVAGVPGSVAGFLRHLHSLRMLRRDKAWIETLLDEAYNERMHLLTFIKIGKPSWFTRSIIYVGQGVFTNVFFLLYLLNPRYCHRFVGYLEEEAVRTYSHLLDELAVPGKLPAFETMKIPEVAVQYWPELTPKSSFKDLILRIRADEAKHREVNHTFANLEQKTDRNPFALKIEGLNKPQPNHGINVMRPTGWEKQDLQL

cytochrome bc1 complex = target: T2, cytochrome bc1 complex (Candida albicans, UniProt A0A1D8PJX3+P0C8L0); assay: cytochrome bc1 activity, dose response (assay not described); assay type: cell-based
T2 construct: gene COB; native multi-subunit complex III; preparation and assay not given; with Cytochrome c1, heme protein, mitochondrial
T2 sequence (P0C8L0 1-387): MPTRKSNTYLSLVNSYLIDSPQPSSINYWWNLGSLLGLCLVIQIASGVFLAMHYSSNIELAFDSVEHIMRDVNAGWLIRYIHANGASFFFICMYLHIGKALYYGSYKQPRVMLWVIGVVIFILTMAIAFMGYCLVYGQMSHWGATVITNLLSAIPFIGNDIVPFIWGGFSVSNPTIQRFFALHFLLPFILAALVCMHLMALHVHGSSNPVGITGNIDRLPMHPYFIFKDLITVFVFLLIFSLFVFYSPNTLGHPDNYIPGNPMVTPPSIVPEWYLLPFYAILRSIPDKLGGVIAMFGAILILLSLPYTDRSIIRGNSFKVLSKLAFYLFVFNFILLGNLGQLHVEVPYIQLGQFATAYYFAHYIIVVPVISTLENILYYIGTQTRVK
T2 sequence (A0A1D8PJX3 30-213): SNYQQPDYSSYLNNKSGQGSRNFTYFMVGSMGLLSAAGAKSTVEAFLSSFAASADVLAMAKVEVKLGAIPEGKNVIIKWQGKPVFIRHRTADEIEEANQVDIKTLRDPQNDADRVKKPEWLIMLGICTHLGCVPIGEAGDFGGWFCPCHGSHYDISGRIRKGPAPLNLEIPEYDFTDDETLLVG
T2 sequence (A0A1D8PHA3 43-288 partner): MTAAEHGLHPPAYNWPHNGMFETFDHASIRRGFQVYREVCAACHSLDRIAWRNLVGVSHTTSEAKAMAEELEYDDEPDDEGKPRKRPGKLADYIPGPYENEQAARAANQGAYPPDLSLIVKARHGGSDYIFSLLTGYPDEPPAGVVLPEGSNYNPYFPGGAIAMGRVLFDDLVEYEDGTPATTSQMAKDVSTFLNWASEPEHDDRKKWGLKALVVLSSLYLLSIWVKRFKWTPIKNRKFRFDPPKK
From the text: cytochrome bc1 activity, dose response (assay not described) on cytochrome bc1 complex

**Q.** How did the IC50 (C. albicans Aox2 (rAox2); NADH, 65 mM MOPS pH 7.5, 1 mM KCN, 10 mM GMP, 10 min preincubation) turn out when `Cc1c(Br)c(O)c(CCCCCCCCCCCC[P+](c2ccccc2)(c2ccccc2)c2ccccc2)c(O)c1C=O` [ALTOX094, (12-(3-Bromo-5-formyl-2,6-dihydroxy-4-methylphenyl)dodecyl)triphenylphosphonium bromide] was run?
**A.** 15 ± 1 µM

**Q.** And the IC50 (cytochrome bc1 complex)?
**A.** 9.1 ± 1.2 µM

**Q.** What does the source list for `Cc1c(Br)c(O)c(CCCCCCCC[P+](c2ccccc2)(c2ccccc2)c2ccccc2)c(O)c1C=O` [ALTOX102, (8-(3-Bromo-5-formyl-2,6-dihydroxy-4-methylphenyl)octyl)triphenylphosphonium bromide]?
**A.** IC50 (C. albicans Aox2 (rAox2)): 11.1 ± 1 µM; IC50 (cytochrome bc1 complex): 5.8 ± 1.4 µM

**Q.** What does the source list for `CC(C)=CCC/C(C)=C/Cc1c(O)c(Cl)c(C)c(C=O)c1O` [Colletochlorin B]?
**A.** IC50 (C. albicans Aox2 (rAox2)): 0.0073 ± 0.0024 µM; IC50 (cytochrome bc1 complex): 1.1 ± 0.1 µM

**Q.** What does the source list for `CC(C)=CCC/C(C)=C/Cc1c(O)c(Br)c(C)c(C=O)c1O` [ISSF31, (E)-3-Bromo-5-(3,7-dimethylocta-2,6-dien-1-yl)-4,6-dihydroxy-2-methylbenzaldehyde]?
**A.** IC50 (C. albicans Aox2 (rAox2)): 0.0211 ± 0.008 µM; IC50 (cytochrome bc1 complex): 1.2 ± 0.6 µM
